Results from ChEMBL document CHEMBL1145647, “Phenylcyclobutyl triazoles as selective inhibitors of 11beta-hydroxysteroid dehydrogenase type I” (Bioorg Med Chem Lett, 2008).

What was measured:
[1] = target: T1, 11-beta-hydroxysteroid dehydrogenase type 2 (Homo sapiens, UniProt P80365); assay: Inhibition of human 11-beta-HSD2 by SPA assay
T1 sequence (P80365 whole entry): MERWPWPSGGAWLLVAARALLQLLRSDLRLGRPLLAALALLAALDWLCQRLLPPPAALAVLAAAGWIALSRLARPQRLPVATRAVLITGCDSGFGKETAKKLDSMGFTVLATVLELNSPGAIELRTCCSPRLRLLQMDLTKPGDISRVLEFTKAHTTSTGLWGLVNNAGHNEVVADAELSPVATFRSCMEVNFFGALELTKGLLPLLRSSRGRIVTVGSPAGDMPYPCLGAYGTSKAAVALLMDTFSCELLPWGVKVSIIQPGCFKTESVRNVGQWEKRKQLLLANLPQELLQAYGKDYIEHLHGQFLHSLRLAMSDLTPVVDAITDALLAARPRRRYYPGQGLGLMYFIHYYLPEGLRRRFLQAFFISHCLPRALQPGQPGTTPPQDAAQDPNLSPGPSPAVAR

[2] = target: T2, 11-beta-hydroxysteroid dehydrogenase type 2 (Mus musculus, UniProt P51661); assay: Inhibition of mouse 11-beta-HSD2 by SPA assay
T2 sequence (P51661 whole entry): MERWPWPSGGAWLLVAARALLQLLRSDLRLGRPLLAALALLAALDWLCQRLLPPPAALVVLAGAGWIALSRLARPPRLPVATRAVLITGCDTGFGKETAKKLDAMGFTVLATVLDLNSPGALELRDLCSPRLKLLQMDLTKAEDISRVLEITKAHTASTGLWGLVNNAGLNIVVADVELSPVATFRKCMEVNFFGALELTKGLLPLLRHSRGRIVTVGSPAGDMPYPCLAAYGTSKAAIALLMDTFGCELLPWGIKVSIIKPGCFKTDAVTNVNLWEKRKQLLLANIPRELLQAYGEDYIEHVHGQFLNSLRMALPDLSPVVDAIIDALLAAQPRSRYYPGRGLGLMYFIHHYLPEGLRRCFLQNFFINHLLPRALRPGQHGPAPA

[3] = target: 11-beta-hydroxysteroid dehydrogenase 1 (Homo sapiens, UniProt P28845); assay: Inhibition of human 11-beta-HSD1 by SPA assay
Chain of 11-beta-hydroxysteroid dehydrogenase 1 (Homo sapiens, UniProt P28845) (P28845 whole entry): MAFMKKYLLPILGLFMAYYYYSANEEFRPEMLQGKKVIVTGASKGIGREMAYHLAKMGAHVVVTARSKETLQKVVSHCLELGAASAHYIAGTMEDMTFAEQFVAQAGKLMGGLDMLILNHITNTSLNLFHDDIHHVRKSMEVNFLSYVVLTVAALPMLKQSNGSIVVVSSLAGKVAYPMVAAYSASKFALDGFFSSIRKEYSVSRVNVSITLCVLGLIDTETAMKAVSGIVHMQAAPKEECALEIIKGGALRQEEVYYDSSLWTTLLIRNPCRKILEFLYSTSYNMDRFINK

[4] = target: 11-beta-hydroxysteroid dehydrogenase 1 (Mus musculus, UniProt P50172); assay: Inhibition of mouse 11-beta-HSD1 by SPA assay
Chain of 11-beta-hydroxysteroid dehydrogenase 1 (Mus musculus, UniProt P50172) (P50172 whole entry): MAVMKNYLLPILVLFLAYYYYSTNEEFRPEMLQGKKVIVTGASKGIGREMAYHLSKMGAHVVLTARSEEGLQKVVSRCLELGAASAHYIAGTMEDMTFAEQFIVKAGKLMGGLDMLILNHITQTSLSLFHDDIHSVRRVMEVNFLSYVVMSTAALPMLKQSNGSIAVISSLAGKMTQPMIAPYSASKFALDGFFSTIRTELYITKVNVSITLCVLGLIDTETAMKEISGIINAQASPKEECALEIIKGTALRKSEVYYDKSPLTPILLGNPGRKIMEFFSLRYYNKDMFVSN

[5] = tested on: Mus musculus; assay: Inhibition of 11-beta-HSD1 in mouse pharmacodynamic model assessed as inhibition of [3H]cortisone to [3H]cortisol at 10 mg/kg, po after 1 hr; type: functional
[6] = tested on: Mus musculus; assay: Inhibition of 11-beta-HSD1 in mouse pharmacodynamic model assessed as inhibition of [3H]cortisone to [3H]cortisol at 10 mg/kg, po after 4 hrs; type: functional
[7] = Plasma concentration in C57B6 mouse at 10 mg/kg; type: ADME, organism-based; set-up: dose 10 mg/kg
[8] = Half life in C57B6 mouse at 10 mg/kg; type: ADME, organism-based; set-up: dose 10 mg/kg; conditions: in vivo
[9] = Oral bioavailability in C57B6 mouse at 10 mg/kg; type: ADME, organism-based; conditions: in vivo

| SMILES | IC50 [1] [nM] | IC50 [2] [nM] | IC50 [3] [nM] | IC50 [4] [nM] | clearance [7] [mL/min/kg] | half-life [8] [h] | bioavailability [9] [%] | inhibition in vivo at 10 mg/kg [5] [%] | inhibition in vivo at 10 mg/kg [6] [%] |
| --- | --- | --- | --- | --- | --- | --- | --- | --- | --- |
| F[C@H]1C[C@@](c2ccc(Cl)cc2)(c2nnc(C3CC3)n2C2CC2)C1 | > 4000 | > 4000 | 22 | 38 | – | – | – | – | – |
| FC1(F)CC(c2ccc(Cl)cc2)(c2nnc(C3CC3)n2C2CC2)C1 | > 4000 | > 4000 | 35 | 107 | – | – | – | – | – |
| C1C2CC3CC1CC(c1nnc(C4CC4)n1C1CC1)(C2)C3 | – | – | – | – | – | – | – | – | 74 |
| Cc1ccc(C2(c3nnc4n3CCCCCC4)CCCCC2)cc1 | – | > 4000 | 15 | 374 | – | – | – | – | – |
| Fc1ccccc1C1(c2nnc3n2CCCCCC3)CCCC1 | 1270 | > 4000 | 1 | 27 | – | – | – | 57 | 18 |
| c1ccc(C2(c3nnc4n3CCCCCC4)CCCCC2)cc1 | 1040 | > 4000 | 13 | 100 | – | – | – | 25 | 0 |
| Fc1ccccc1C1(c2nnc3n2CCCCCC3)CCC1 | < 4000 | > 4000 | 1 | 16 | – | – | – | 90 | 53 |
| C1CCCn2c(nnc2C23CC4CC(CC(C4)C2)C3)CC1 | – | – | – | – | – | – | – | – | 24 |
| Cc1cccc(C2(c3nnc4n3CCCCCC4)CCC2)c1 | > 4000 | > 4000 | 2 | 52 | – | – | – | 17 | 22 |
| Oc1cccc(C2(c3nnc4n3CCCCCC4)CCCC2)c1 | > 4000 | > 4000 | 43 | 61 | – | – | – | 3 | 21 |
| Clc1ccc(C2(c3nnc4n3CCCCCC4)CC2)cc1 | > 4000 | > 4000 | 2 | 230 | – | – | – | – | – |
| Cc1ccc(C2(c3nnc4n3CCCCCC4)CC2)cc1 | > 4000 | > 4000 | 1 | 332 | – | – | – | – | – |
| c1ccc(C2(c3nnc4n3CCCCCC4)CCCC2)cc1 | 1040 | > 4000 | 2 | 12 | – | – | – | 73 | 37 |
| Fc1ccc(C2(c3nnc4n3CCCCCC4)CCCCC2)cc1 | 1170 | > 4000 | 27 | 494 | – | – | – | – | – |
| Fc1ccc(C2(c3nnc4n3CCCCCC4)CCCC2)cc1 | > 4000 | > 4000 | 8 | 18 | – | – | – | 58 | 30 |
| FC(F)(F)c1ccc(C2(c3nnc4n3CCCCCC4)CCC2)cc1 | > 4000 | > 4000 | 2 | 115 | – | – | – | – | – |
| F[C@H]1C[C@](c2ccc(Cl)cc2)(c2nnc(C3CC3)n2C2CC2)C1 | > 4000 | > 4000 | 5 | 16 | 10.7 | 1.5 | 100 | 92 | 91 |

Further compounds by falling IC50 [3], results first:

| IC50 [1] [nM] | IC50 [2] [nM] | IC50 [3] [nM] | IC50 [4] [nM] | clearance [7] [mL/min/kg] | half-life [8] [h] | bioavailability [9] [%] | SMILES | inhibition in vivo at 10 mg/kg [5] [%] | inhibition in vivo at 10 mg/kg [6] [%] |
| --- | --- | --- | --- | --- | --- | --- | --- | --- | --- |
| – | > 4000 | 32 | 454 | – | – | – | Clc1ccc(C2(c3nnc4n3CCCCCC4)CCCCC2)cc1 | – | – |
| 1960 | > 4000 | 10 | 57 | – | – | – | Cc1cccc(C2(c3nnc4n3CCCCCC4)CCCC2)c1 | 20 | 22 |
| > 4000 | > 4000 | 8 | 172 | – | – | – | c1ccc(C2(c3nnc4n3CCCCCC4)CC2)cc1 | 63 | 45 |
| > 3000 | > 10000 | 7.8 | 98 | – | – | – | C1CCc2nnc(C34CC5CC(CC(C5)C3)C4)n2CC1 | 59 | 17 |
| > 4000 | > 4000 | 5 | 355 | – | – | – | FC(F)(F)c1ccccc1C1(c2nnc3n2CCCCCC3)CCC1 | – | – |
| > 4000 | > 4000 | 3 | 37 | – | – | – | Fc1ccc(C2(c3nnc4n3CCCCCC4)CCC2)cc1 | 68 | 55 |
| 4000 | > 4000 | 2 | 19 | – | – | – | Fc1cccc(C2(c3nnc4n3CCCCCC4)CCC2)c1 | 87 | 68 |
| – | – | 2 | 41 | – | – | – | Clc1ccc(C2(c3nnc4n3CCCCCC4)CCCC2)cc1 | – | – |
| – | > 4000 | 2 | 25 | – | – | – | Cc1ccc(C2(c3nnc4n3CCCCCC4)CCCC2)cc1 | 35 | 3 |
| 1960 | > 4000 | 2 | 199 | – | – | – | Clc1ccc(C2(c3nnc4n3CCCCCC4)CC2)c(Cl)c1 | – | – |
| 2010 | > 4000 | 2 | 19 | – | – | – | Cc1ccc(C2(c3nnc4n3CCCCCC4)CCC2)cc1 | 48 | 28 |
| – | – | 1 | 14 | – | – | – | Clc1ccc(C2(c3nnc4n3CCCCCC4)CCC2)cc1 | 91 | 77 |
| 4000 | > 4000 | 1 | 8 | – | – | – | c1ccc(C2(c3nnc4n3CCCCCC4)CCC2)cc1 | 88 | 72 |
| 3320 | > 4000 | 1 | 78 | – | – | – | Cc1ccccc1C1(c2nnc3n2CCCCCC3)CCC1 | 23 | 21 |
